Measured values as given in ChEMBL document CHEMBL3352100, “Visible light-induced nitric oxide release from a novel nitrobenzene derivative cross-conjugated with a coumarin fluorophore” (Bioorg Med Chem Lett, 2014).
Active and inactive are the calls of the source. The rule behind the calls is not given here.

How the values were obtained:
[1] = Induction of nitric oxide release in potassium phosphate buffer at pH 7.35 at 100 uM photoirradiated with 180 mW/cm'2 light for 15 mins by LC/ESI-MS analysis in presence of Fe2+/MGD2 complex; type: physicochemical; settings: pH 7.35, 0.25 h
[2] = Induction of nitric oxide release in potassium phosphate buffer at pH 7.35 at 100 uM photoirradiated with 15 mW/cm'2 light for 10 mins by spectrometric analysis in presence of Fe2+/MGD2 complex; type: physicochemical; settings: pH 7.35, 10 min
HCT-116 = test: Induction of nitric oxide release in human HCT116 cells at 25 uM incubated for 3 hrs followed by […] irradiation by DAR-4M/AM staining-based fluorescence microscopy relative to control; type: functional, cell-based
[3] = Induction of nitric oxide release in potassium phosphate buffer at pH 7.35 at 500 uM photoirradiated with 190 mW/cm'2 light for 15 mins by LC/ESI-MS analysis in presence of Fe2+/MGD2 complex; type: physicochemical; settings: pH 7.35, 0.25 h
[4] = Cellular uptake in human HCT116 cell cytoplasm at 100 uM by confocal fluorescence microscopy; type: ADME, cell-based; settings: hct-116, 100 µM

Structure (SMILES) | Activity [1] | Activity [2] | Activity (HCT-116) | Activity [3] | Drug uptake [4]
CCN(CC)c1ccc2c(C)c(/C=C/c3cc(C)c([N+](=O)[O-])c(C)c3)c(=O)oc2c1 | Not Active | – | – | – | –
Cc1cc(/C=C/c2cc(=O)oc3cc(O)c(Br)cc23)cc(C)c1[N+](=O)[O-] | – | Active | Active | Active | Active
